Values quoted from earlier work as cited in US20080026050A1, “SOLID DOSE FORMULATIONS OF A THROMBIN RECEPTOR ANTAGONIST” (priority 2006, published 2008).

Target: T1, thrombin receptor (Homo sapiens, UniProt P25116)
T1 sequence (P25116 22-425): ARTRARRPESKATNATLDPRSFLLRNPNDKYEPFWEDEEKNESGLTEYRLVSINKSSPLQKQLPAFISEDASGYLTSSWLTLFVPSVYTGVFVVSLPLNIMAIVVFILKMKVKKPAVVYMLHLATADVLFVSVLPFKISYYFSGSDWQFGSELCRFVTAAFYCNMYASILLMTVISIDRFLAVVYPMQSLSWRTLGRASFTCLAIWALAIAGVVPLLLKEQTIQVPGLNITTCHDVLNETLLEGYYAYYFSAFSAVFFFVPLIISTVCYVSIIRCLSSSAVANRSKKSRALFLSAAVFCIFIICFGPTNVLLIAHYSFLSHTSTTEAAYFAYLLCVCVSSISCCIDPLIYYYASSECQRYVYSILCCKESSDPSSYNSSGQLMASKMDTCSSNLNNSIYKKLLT
Conditions: general statement, refers to U.S. application Ser. No. 10/412,982

selectivity: good | thrombin receptor antagonist activity (potency): good
SMILES: CCOC(=O)N[C@@H]1CC[C@@H]2[C@@H](C1)C[C@H]1C(=O)O[C@H](C)[C@H]1[C@H]2/C=C/c1ccc(-c2cccc(F)c2)cn1 [COMPOUND 1]
